Laboratory results published in patent US11891365B2, “3-alkyl-4-amido-bicyclic [4,5,0] hydroxamic acids as HDAC inhibitors” (Valo Health, Inc., priority 2015, dated 2024).

Biological target: T1, Full length human recombinant HDAC6 protein (Homo sapiens, UniProt Q9UBN7)
T1 sequence (Q9UBN7 1-1215): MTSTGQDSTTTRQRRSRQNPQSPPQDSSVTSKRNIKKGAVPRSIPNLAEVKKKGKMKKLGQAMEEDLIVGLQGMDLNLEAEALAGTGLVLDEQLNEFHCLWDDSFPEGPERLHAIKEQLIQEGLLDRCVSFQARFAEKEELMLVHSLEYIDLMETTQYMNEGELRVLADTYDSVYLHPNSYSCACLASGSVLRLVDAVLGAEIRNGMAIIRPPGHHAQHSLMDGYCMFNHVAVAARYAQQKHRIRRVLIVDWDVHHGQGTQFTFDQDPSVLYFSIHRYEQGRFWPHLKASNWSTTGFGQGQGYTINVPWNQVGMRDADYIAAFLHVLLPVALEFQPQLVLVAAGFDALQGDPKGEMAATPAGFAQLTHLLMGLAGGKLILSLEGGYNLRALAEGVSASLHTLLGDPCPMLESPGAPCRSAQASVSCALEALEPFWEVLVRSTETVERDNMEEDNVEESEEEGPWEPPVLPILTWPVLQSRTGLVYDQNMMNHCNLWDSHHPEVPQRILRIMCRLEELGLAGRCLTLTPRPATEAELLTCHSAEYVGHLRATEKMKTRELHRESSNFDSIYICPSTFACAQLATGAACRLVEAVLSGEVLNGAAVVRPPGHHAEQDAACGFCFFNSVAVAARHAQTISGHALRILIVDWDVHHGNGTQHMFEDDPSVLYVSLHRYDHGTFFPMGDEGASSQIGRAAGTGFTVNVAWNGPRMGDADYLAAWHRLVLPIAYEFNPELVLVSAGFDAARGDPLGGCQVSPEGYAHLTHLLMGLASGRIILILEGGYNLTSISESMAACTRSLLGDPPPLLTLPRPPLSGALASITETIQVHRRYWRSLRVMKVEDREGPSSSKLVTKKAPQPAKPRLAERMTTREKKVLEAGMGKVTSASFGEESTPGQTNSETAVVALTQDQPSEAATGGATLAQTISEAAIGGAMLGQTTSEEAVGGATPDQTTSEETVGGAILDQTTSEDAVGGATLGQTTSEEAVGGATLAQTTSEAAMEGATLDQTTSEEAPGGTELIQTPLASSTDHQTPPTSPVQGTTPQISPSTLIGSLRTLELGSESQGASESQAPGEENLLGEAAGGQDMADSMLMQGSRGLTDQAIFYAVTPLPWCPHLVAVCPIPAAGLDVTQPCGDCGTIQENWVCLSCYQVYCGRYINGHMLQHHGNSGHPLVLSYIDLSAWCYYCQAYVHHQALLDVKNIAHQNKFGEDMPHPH
Test: In vitro histone deacetylase assay: enzymatic HDAC6 electrophoretic mobility shift assay
Type: biochemical
Settings: 1 nM enzyme, 2 μM peptide substrate RHKK(Ac)-NH2, 25° C., 12 concentrations; read-out: Inhibitory Concentration (IC50) Values against HDAC6, Activity Range

Row | SMILES | IC50 [nM]
1 | C[C@H]1COc2cc(C(=O)NO)ccc2CN1C(=O)CCOCC(F)(F)F [(S)-N-hydroxy-3-methyl-4-(3-(2,2,2-trifluoroethoxy)propanoyl)-2,3,4,5-tetrahydrobenzo[f][1,4]oxazepine-8-carboxamide] | ≤ 100
2 | O=C(NO)c1ccc2c(c1)OCCN(C(=O)C1(c3ccccc3)CC1)C2 [N-hydroxy-4-(1-phenylcyclopropane-1-carbonyl)-2,3,4,5-tetrahydrobenzo[f][1,4]oxazepine-8-carboxamide] | ≤ 100
3 | O=C(NO)c1ccc2c(c1)OCCN(C(=O)[C@H]1CCCOC1)C2 [(S)-N-hydroxy-4-(tetrahydro-2H-pyran-3-carbonyl)-2,3,4,5-tetrahydrobenzo[f][1,4]oxazepine-8-carboxamide] | ≤ 100
4 | C[C@H]1COc2cc(C(=O)NO)ccc2CN1C(=O)C1(F)CCOCC1 [(S)-4-(4-fluorotetrahydro-2H-pyran-4-carbonyl)-N-hydroxy-3-methyl-2,3,4,5-tetrahydrobenzo[f][1,4]oxazepine-8-carboxamide] | ≤ 100
5 | C[C@H]1COc2cc(C(=O)NO)ccc2CN1C(=O)C1CCS(=O)(=O)CC1 [(S)-4-(1,1-dioxidotetrahydro-2H-thiopyran-4-carbonyl)-N-hydroxy-3-methyl-2,3,4,5-tetrahydrobenzo[f][1,4]oxazepine-8-carboxamide] | ≤ 100
6 | CC(C)[C@H]1COc2cc(C(=O)NO)ccc2CN1C(=O)CC1CCOCC1 [(S)-N-hydroxy-3-isopropyl-4-(2-(tetrahydro-2H-pyran-4-yl)acetyl)-2,3,4,5-tetrahydrobenzo[f][1,4]oxazepine-8-carboxamide] | 100 to 500
7 | COC[C@@H]1CN(C(=O)C2(C)CCC2)Cc2ccc(C(=O)NO)cc2O1 [(S)-N-hydroxy-2-(methoxymethyl)-4-(1-methylcyclobutane-1-carbonyl)-2,3,4,5-tetrahydrobenzo[f][1,4]oxazepine-8-carboxamide] | ≤ 100
8 | C[C@H]1COc2cc(C(=O)NO)ccc2CN1C(=O)C(C)(C)c1cccnc1 [(S)-N-hydroxy-3-methyl-4-(2-methyl-2-(pyridin-3-yl)propanoyl)-2,3,4,5-tetrahydrobenzo[f][1,4]oxazepine-8-carboxamide] | ≤ 100
9 | CC1(C(=O)N2Cc3ccc(C(=O)NO)cc3O[C@H](c3ccccc3)C2)CCC1 [(R)-N-hydroxy-4-(1-methylcyclobutane-1-carbonyl)-2-phenyl-2,3,4,5-tetrahydrobenzo[f][1,4]oxazepine-8-carboxamide] | 100 to 500
10 | C[C@H]1COc2cc(C(=O)NO)ccc2CN1C(=O)[C@@H]1CCOC(C)(C)C1 [(S)-4-((R)-2,2-dimethyltetrahydro-2H-pyran-4-carbonyl)-N-hydroxy-3-methyl-2,3,4,5-tetrahydrobenzo[f][1,4]oxazepine-8-carboxamide] | ≤ 100
11 | CC1(C(=O)N2CC(=O)Nc3ccc(C(=O)NO)cc3C2)CCC1 [N-hydroxy-4-(1-methylcyclobutane-1-carbonyl)-2-oxo-2,3,4,5-tetrahydro-1H-benzo[e][1,4]diazepine-7-carboxamide] | 100 to 500
12 | C[C@H]1OCCC[C@@H]1C(=O)N1Cc2ccc(C(=O)NO)cc2OC[C@@H]1C [(S)-N-hydroxy-3-methyl-4-((2R,3S)-2-methyltetrahydro-2H-pyran-3-carbonyl)-2,3,4,5-tetrahydrobenzo[f][1,4]oxazepine-8-carboxamide] | ≤ 100
13 | C[C@H]1COc2cc(C(=O)NO)ccc2CN1C(=O)C1(C)CCCO1 (stereo partly drawn) [(3S)-N-hydroxy-3-methyl-4-(2-methyltetrahydrofuran-2-carbonyl)-2,3,4,5-tetrahydrobenzo[f][1,4]oxazepine-8-carboxamide] | ≤ 100
14 | CC(C)(C(=O)N1CCOc2cc(C(=O)NO)ccc2C1)c1cccs1 [N-hydroxy-4-(2-methyl-2-(thiophen-2-yl)propanoyl)-2,3,4,5-tetrahydrobenzo[f][1,4]oxazepine-8-carboxamide] | ≤ 100
15 | C[C@H]1c2ccc(C(=O)NO)cc2OCCN1C(=O)C1(C)CCOCC1 [(S)-N-hydroxy-5-methyl-4-(4-methyltetrahydro-2H-pyran-4-carbonyl)-2,3,4,5-tetrahydrobenzo[f][1,4]oxazepine-8-carboxamide] | ≤ 100
16 | O=C(NO)c1ccc2c(c1)OCCN(C(=O)C1CCC3(CCNC3)CC1)C2 (stereo not shown) [N-hydroxy-4-(2-azaspiro[4.5]decane-8-carbonyl)-2,3,4,5-tetrahydrobenzo[f][1,4]oxazepine-8-carboxamide] | ≤ 100
17 | CC1(C(=O)N2Cc3ccc(C(=O)NO)cc3OCC2(C)C)CCC1 [N-hydroxy-3,3-dimethyl-4-(1-methylcyclobutane-1-carbonyl)-2,3,4,5-tetrahydrobenzo[f][1,4]oxazepine-8-carboxamide] | > 500
18 | COCCC(C(=O)N1CCOc2cc(C(=O)NO)ccc2C1)c1ccccn1 (stereo not shown) [N-hydroxy-4-(4-methoxy-2-(pyridin-2-yl)butanoyl)-2,3,4,5-tetrahydrobenzo[f][1,4]oxazepine-8-carboxamide] | 100 to 500

Second part, the compound after the results:

Row | IC50 [nM] | SMILES
19 | ≤ 100 | C[C@H]1COc2cc(C(=O)NO)ccc2CN1C(=O)c1ccccc1 [(S)-4-benzoyl-N-hydroxy-3-methyl-2,3,4,5-tetrahydrobenzo[f][1,4]oxazepine-8-carboxamide]
20 | ≤ 100 | O=C(NO)c1ccc2c(c1)OCCN(C(=O)C1CCCCC1)C2 [4-(cyclohexanecarbonyl)-N-hydroxy-2,3,4,5-tetrahydrobenzo[f][1,4]oxazepine-8-carboxamide]
21 | ≤ 100 | C[C@H]1COc2cc(C(=O)NO)ccc2CN1C(=O)C(C)(C)Cc1ccc(F)cc1 [(S)-4-(3-(4-fluorophenyl)-2,2-dimethylpropanoyl)-N-hydroxy-3-methyl-2,3,4,5-tetrahydrobenzo[f][1,4]oxazepine-8-carboxamide]
22 | 100 to 500 | O=C(NO)c1ccc2c(c1)OCCN(C(=O)C1CC13CCNCC3)C2 (stereo not shown) [N-hydroxy-4-(6-azaspiro[2.5]octane-1-carbonyl)-2,3,4,5-tetrahydrobenzo[f][1,4]oxazepine-8-carboxamide]
23 | ≤ 100 | CC(C)(C(=O)N1CCOc2cc(C(=O)NO)ccc2C1)n1cc(Cl)cn1 [4-(2-(4-chloro-1H-pyrazol-1-yl)-2-methylpropanoyl)-N-hydroxy-2,3,4,5-tetrahydrobenzo[f][1,4]oxazepine-8-carboxamide]
24 | ≤ 100 | O=C(NO)c1ccc2c(c1)OCCN(C(=O)C1(S(=O)(=O)c3ccccc3)CC1)C2 [N-hydroxy-4-(1-(phenylsulfonyl)cyclopropane-1-carbonyl)-2,3,4,5-tetrahydrobenzo[f][1,4]oxazepine-8-carboxamide]
25 | ≤ 100 | CC(C)(C)C(=O)N1CCOc2cc(C(=O)NO)ccc2C1 [N-hydroxy-4-pivaloyl-2,3,4,5-tetrahydrobenzo[f][1,4]oxazepine-8-carboxamide]
26 | ≤ 100 | CC(Cc1ccccc1)C(=O)N1CCOc2cc(C(=O)NO)ccc2C1 (stereo not shown) [N-hydroxy-4-(2-methyl-3-phenylpropanoyl)-2,3,4,5-tetrahydrobenzo[f][1,4]oxazepine-8-carboxamide]
27 | 100 to 500 | O=C(NO)c1cnc2c(n1)OCCN(C(=O)C1CCOCC1)C2 [N-hydroxy-8-(tetrahydro-2H-pyran-4-carbonyl)-6,7,8,9-tetrahydropyrazino[2,3-f][1,4]oxazepine-3-carboxamide]
28 | ≤ 100 | CC(C)[C@H]1COc2cc(C(=O)NO)ccc2CN1C(=O)C1CCOCC1 [(S)-N-hydroxy-3-isopropyl-4-(tetrahydro-2H-pyran-4-carbonyl)-2,3,4,5-tetrahydrobenzo[f][1,4]oxazepine-8-carboxamide]
29 | ≤ 100 | C[C@@H]1c2cc(C(=O)NO)ccc2OCCN1C(=O)C1(C)CCC1 [(R)-N-hydroxy-5-methyl-4-(1-methylcyclobutane-1-carbonyl)-2,3,4,5-tetrahydrobenzo[f][1,4]oxazepine-7-carboxamide]
30 | 100 to 500 | CC(C)(C)OC(=O)N1CCC2(CC1)CC2C(=O)N1CCOc2cc(C(=O)NO)ccc2C1 (stereo not shown) [tert-butyl 1-(8-(hydroxycarbamoyl)-2,3,4,5-tetrahydrobenzo[f][1,4]oxazepine-4-carbonyl)-6-azaspiro[2.5]octane-6-carboxylate]
31 | 100 to 500 | C[C@H](C(=O)N1CCOc2cc(C(=O)NO)ccc2C1)c1ccccc1 [(S)-N-hydroxy-4-(2-phenylpropanoyl)-2,3,4,5-tetrahydrobenzo[f][1,4]oxazepine-8-carboxamide]
